SMILES	melting point [°C]
O=C(NCc1ccccc1Cl)c1cccnc1Oc1cccnc1	174 to 176
CC(C)[C@H](NC(=O)N(C)Cc1csc(NC(=O)OC(C)(C)C)n1)C(=O)N[C@@H](Cc1ccccc1)C[C@H](O)[C@H](Cc1ccccc1)NC(=O)OCc1cccnc1	103 to 105
O=C1c2cccc3c([N+](=O)[O-])c(Br)cc(c23)C(=O)N1O	232 to 233
CCCc1c(OCCCOc2ccc(C(C)=O)c(OCCCC(=O)OCC)c2CCC)ccc(C(C)=O)c1O	77 to 79
CC(CCCC(C)(C)O)C1CCC2C3=CC=C4CC(O)C(OCCCO)C(O)C4(C)C3CCC21C (stereo not drawn)	118 to 120
O=C1CCC2=C(CCCC2)N1	143 to 144
CC(C)(C)C1=CC(=O)C=CC1=O	55 to 60
CCc1c(OC)nc2nc(C#N)cn2c1C	166 to 168
O=S(=O)(c1ccc(Br)cc1)N1CCC2(C=Cc3ccccc32)CC1	177 to 178
Oc1cccc([C@H]2CCCC[C@H]2NCCCc2ccccc2)c1 (racemic)	112 to 113
CCCCCn1nc(-c2cccc(C(F)(F)F)c2F)c(=O)c2cccc(OC)c21	82 to 84
CC(C)(C)OC(=O)N1CCC2(CC1)C(=O)NCN2c1ccccc1	213 to 214
O=C(CNc1ccccc1)OC1CCCCC1	50
NC(=O)C(CCC(=O)O)N1C(=O)c2cccc(NCc3ccco3)c2C1=O (stereo not drawn)	120 to 122
CCn1nc(C)c2c1C1=NCCN1C(C)=N2	168 to 170
O=c1c2nc[nH]c2nc2n1CCN2Cc1ccc(Cl)cc1	314 to 316
NS(=O)(=O)c1ccc(NC(=O)Nc2ccccc2)cc1	233 to 235
N#CC1(N2CCC(O)CC2)CCSCC1	79 to 81
CC12CC(O)C3(F)C(CCC4=CC(=O)C=CC43C)C1CC(O)C2=O (stereo not drawn)	227 to 228
CC1=CCC2C(=O)OC(=O)C2C1 (stereo not drawn)	58 to 63
COc1ccc(S(=O)(=O)CC(O)(CS(=O)(=O)c2ccc(-c3ccccc3)cc2)C(=O)NO)cc1 (stereo not drawn)	72 to 76
[N-]=[N+]=NCC1Cc2cc(Cl)cc(-c3ccsc3)c2O1 (stereo not drawn)	50 to 52
O=C1CCc2ccc(OCc3ccccc3)cc21	99 to 101
O=S(=O)(Nc1ccc(Cl)cc1C(=NOCc1ccc(Cl)c(Cl)c1)c1ccccc1)C(F)(F)F	87 to 88
CCCCN(CCCC)c1ccc(C(C#N)=C(C#N)C#N)c(OC)c1	86

SMILES	melting point [°C]
COc1cc(C=CC(=O)OC2CC3C(O)C(OC(=O)C=Cc4cc(OC)c(OC)c(OC)c4)C(C2)N3C)cc(OC)c1OC (stereo not drawn)	59 to 61
O=C(N1CCOCC1)N1CCN(CCNc2ncc3ncnc(Nc4ccc(F)c(Cl)c4)c3n2)CC1	163 to 168
O=C(Nc1cccc(Cl)c1)N1CCNC1=N[N+](=O)[O-]	214 to 216
Cc1c(SCCN2CCOCC2)ccnc1CSc1nc2ccccc2s1	91 to 93
O=C(Cc1ccc(CC(=O)Oc2cc(O)cc(O)c2)cc1)Oc1cc(O)cc(O)c1	220 to 225
Nc1ncc(-c2cccc(F)c2)nc1C(=O)Nc1cccnc1	234 to 238
COc1ccccc1C(O)c1cc(Br)cc(Br)c1 (stereo not drawn)	112 to 116
Cc1ccc(C2c3c(C)c(N4Cc5ccccc5C4)c(C)c(C)c3OC2(C)C)cc1 (stereo not drawn)	141 to 143
COc1ccc(-c2c(/C=C/C(=O)Oc3ccc([N+](=O)[O-])cc3)ccc3cc(OC)ccc23)cc1	160 to 161
O=C(O[C@@H]1CCN(CC#CCN2CCCC2)C1=O)c1ccc([N+](=O)[O-])cc1	89 to 90
CCCc1c2nc(C(=O)OC)cc(Br)c2cc2c(=O)cc(C(=O)OCC)oc12	177 to 178
O=C(c1ccc(F)cc1F)N1CCc2cc(S(=O)(=O)N3CC(c4ccccc4)NC3=O)ccc21 (stereo not drawn)	128
FC(F)(F)c1ccc2onc(Nc3ccncc3)c2c1	> 280
C=C1C[C@@H]2[C@H](CC[C@]3(C)C(=O)CC[C@@H]23)[C@@]2(C)CCC(=O)C(SCC)=C12	140 to 145
Cc1nc2cc(CN3CCN(C(c4ccccc4)c4ccccc4)CC3)ccc2n1C	206
CCCCn1c(=O)[nH]c2nc3ccccc3n2c1=O	275 to 280
CCCC(c1ccccc1OCc1ccc(Cl)cc1Cl)n1ccnc1 (stereo not drawn)	89 to 90
Clc1ccc(-c2cc(OCCCN3CCCCC3)[nH]n2)cc1	140
COc1ccccc1COc1ccc(-c2cc(O)c(SCCc3ccccc3)c(=O)o2)cc1	138 to 139
CC=CCNc1cc(C(=O)O)cc(S(N)(=O)=O)c1Sc1ccc(N)cc1	242
C1=CNc2c(ccc3ncccc23)C=N1	169 to 171
Cc1sc2nc(SCCCN3CCN(c4ccc5ccccc5n4)CC3)[nH]c(=O)c2c1C	225 to 226
CC1(C)Cc2c(c(N3CCOCC3)nc3sc4c(N(CCN5CCOCC5)Cc5cccnc5)ncnc4c23)CO1	150
CCNC(=O)CCC1CCN(Cc2cnc3cc(NC(=O)c4ccc(-c5ccc(F)cc5)cc4)c(C)cc3c2)CC1	227 to 230
COc1cccc2c(N(C)c3ccccc3)nc(N(C)c3ccccc3)nc12	169 to 170

SMILES	melting point [°C]
O=[N+]([O-])c1cc(C(O)CCN2CCC(c3ccccc3)CC2)ccc1C1CCCCC1 (stereo not drawn)	148 to 150
Cc1cc(-n2nc(C(F)(F)F)cc2-c2ccc(-c3cscn3)cc2)ccc1S(C)(=O)=O	147 to 149
CC#CCOc1ccc(SC(C(=O)NO)c2ccc(Cl)cc2)cc1 (stereo not drawn)	152
CC(c1ccc(CCn2c(=O)[nH]c3cc(-c4ccc(F)cc4)sc3c2=O)cc1)N1CCCC1 (stereo not drawn)	260 to 264
COC(=O)[C@@H](NC(=O)[C@H](CC(C)C)NC(=O)[C@@H](NC(=O)OCc1ccccc1)C(C)C)[C@@H](C)O	217 to 218
CCOC(Nc1ccccc1)(OCC)c1ccnc(C(=O)c2ccccc2)c1	114 to 115
CC(C)N(C(=O)c1cc2ccccc2c(-c2ccccc2Cl)n1)C(C)C	161
CN(Cc1cc2ccccc2n1C)C(=O)/C=C/c1ccc(NC(=O)CCC(N)=O)nc1	225 to 227
O=C1CNc2ncc(I)cc2N1Cc1ccccc1	225
CC#Cc1cc(Cl)nc(Nc2ccccc2)n1	121 to 124
COC1=C(OC)C(=O)C(CCCCCCCCCCCCO)=C(C)C1=O	63
CC(=O)C12CCC(CC1)CC2(C)O (stereo not drawn)	43 to 44
CCCCc1nc2c(N)nc3cccnc3c2n1CCNC(C)=O	228 to 230
CCCCc1nc(SC)c(C(=O)OCC)n1Cc1cccc(-c2ccc(S(=O)(=O)NC#N)cc2)c1	120
O=C(O)C1CC(c2ccc(-c3ccc(N4C[C@H](Cn5ccnn5)OC4=O)cc3F)cn2)=NO1 (stereo partly drawn)	190 to 194
O=c1cc(-c2cncnc2)oc2c(O)c(O)ccc12	> 300
CCC1c2ccccc2-c2ccccc21	152 to 154
COC(=O)Cc1ccc(C(=O)c2ccccc2)n1C	96 to 98
C=CC(=O)N(CCCCCC)C[C@H](O)[C@@H](O)[C@H](O)[C@H](O)CO	86 to 88
CNC(=O)C1CCC(c2csc(NC(=N)N)n2)C1 (stereo not drawn)	216 to 218
O=C(N1CCCC1)C1(Cc2ccccc2)CCN(Cc2ccccc2)CC1	129
N#Cc1ccc(-c2cn(-c3ccc(C#N)cc3)c(CC3(O)C=CC=CN3)n2)cc1 (stereo not drawn)	167 to 175
O=c1ccn(CCO)c(C(O)c2ccccc2)c1OCc1ccccc1 (single isomer, unassigned; (+))	169 to 170
CCCCc1nc(C(O)(C(C)C)C(C)C)c(C(N)=O)n1Cc1ccc(-c2ccccc2C(=O)O)cc1	178 to 181
CC(=O)Nc1cc(O)ccc1Oc1ccccc1	151 to 153

SMILES	melting point [°C]
COCC(C)Oc1cc(Oc2ccc(S(C)(=O)=O)cc2)cc2cc(C(=O)O)[nH]c12 (stereo not drawn)	136 to 137
Nc1ncc(Oc2ccc(Cl)cc2)c(N2CCN(CCO)CC2)n1	121 to 123
CC(=O)NCC1CN(c2ccc(N3CCN(C=O)CC3)c(F)c2)C(=O)O1 (stereo not drawn)	190 to 194
N#CC=Cc1ccc(N)cc1	109 to 110
CCC(=CC=C(C#N)C#N)NCCO	88 to 90
CN1C(=O)N(Cc2cc(C(F)(F)F)cc(C(F)(F)F)c2)C(=O)C1=Cc1c[nH]c2ccccc12	145 to 147
O=C(OC1CCCC1)c1cc([N+](=O)[O-])c(F)cc1Cl	44 to 45
CCc1cc(-c2cc(-c3ccc(C(=O)O)cc3)ccc2OCCO)ccc1N(CC)CC	206
O=[N+]([O-])c1ccc2c(c1)[nH]c1cc([N+](=O)[O-])ccc12	> 300
COc1ccc(S(=O)(=O)Nc2cccnc2Nc2cccc(C)c2)cc1	147 to 148
CC1(C)SCN(CCCCN2CCN(c3ccc4ccccc4n3)CC2)C1=O	107 to 111
N#CC(C#N)(CC=C(Cl)Cl)Cc1ccc(Cl)cc1	67.5
COC(=O)CN1C(=S)CN=C(c2ccccc2Cl)c2cc(Cl)ccc21	191 to 192
Cc1cc(-n2c(C)ccc2-c2ccc(S(C)(=O)=O)c(F)c2)ccc1-c1cscn1	179 to 181
CNC1=Nc2ccc([N+](=O)[O-])cc2C(c2ccccc2Cl)=NC1	219 to 221
Cn1cnc2cc(NN)ccc2c1=O	208 to 211
Cc1c(C)c2c(c(C)c1OCc1ccccc1)CCC(C)(CC=O)O2 (stereo not drawn)	70 to 75
COc1cccc([C@@]23CCN(C)C[C@@H]2Cc2cc4ccccc4nc2C3)c1	154 to 156
OC1CSC(Oc2cc(-c3cccnc3F)ccc2Cl)C(O)C1O (stereo not drawn)	165
COc1cc2c(c(Cl)c1Cl)C(=O)C(C)(c1ccccc1)C2 (stereo not drawn)	161 to 163
COc1ccc([C@@H]2Sc3ccccc3N(CCN(C)C)C(=O)[C@@H]2OC(=O)Nc2ccc(F)cc2)cc1 (relative stereo)	153 to 154
NC(=O)N1C(=O)C(C(=O)c2ccco2)c2nc(Cl)ccc21 (stereo not drawn)	248 to 260
O=C1CNC(c2cccc(Cc3ccccc3)c2)=NN1CC(F)(F)F	104 to 106

Reference: a melting point compilation (Tetko et al.; mined from patent text by program, amines drawn as free bases though some values may be those of a salt)
